Source: patent US20080207632A1, “PROTEIN KINASE INHIBITORS” (SUPERGEN, INC., priority 2006, published 2008)
pIC50: −log10 of the molar value. Where two headings read alike, the source gives them in different places.

What was measured:
Assay type in all cases: cell-based
[1] = system: HepG2 (hepatocellular carcinoma); assay: in vitro cytotoxicity assay (Cell-Titer-Glo), HepG2; settings: Homo sapiens, HepG2, 96 h, 4 days
Experimental: (§1) To evaluate cell killing of cancer cell lines, an in vitro cytotoxicity assay was performed. The tumor cell lines used were purchased from the American Type Culture Collection, and are identified as follows: Panc-1 (pancreas), MiaPaCa-2 (pancreas), MCF-7 (breast), HT-29 (colon), U2-OS (osteosarcoma), OVCAR-3 (ovary), HepG2 (hepatocellular carcinoma) and TT (medullary thyroid). The assay utilized the Cell-Titer-Glo Non-Radioactive Cell Proliferation Assay (Promega Corp., Madison, Wis.). First the cells were cultured in RPMI 1640 medium (Cat# 21870-076, Invitrogen Corporation) supplemented with 300 mg/L L-glutamine, 100 units/ml penicillin, 100 μg/ml streptomycin and 10% fetal bovine serum. All the cell lines were incubated in a humidified incubator at 37° C. with 5% CO2 atmosphere.
(§2) Cells were plated at a density of 2000 to 10000 cells per well, depending on their growth rate, in 0.09 mL medium on day 0 in 96-well Microlite TCT microtiter plates (7418, Thermo Labsystems, Franklin, Mass.). On day 1, 10 μL of serial dilutions of the individual compounds were added to the plates in replicates of 3. After incubation for 4 days at 37° C. in a humidified incubator, the cells were lysed in the Cell-Titer-Glo reagent, which also contains luciferase enzyme. The luciferase reaction utilizes ATP released from lysed cells to produce light, the intensity of which is linearly related to the amount of ATP. Thus, the amount of light produced is a reflection of the number of cells remaining in the well after drug treatment. This luminescence was measured using a Luminoskan luminometer (Thermo Electron Corp., Vantaa, Finland) Data were expressed as the percentage of survival of control cells calculated from the luminescence corrected for background. The surviving percent of cells was determined by dividing the mean luminescence values of the treated wells by the mean luminescence values of the control and multiplying by 100.
as §1, with “Briefly,” for “To evaluate cell killing of cancer cell lines, an in vitro cytotoxicity assay was performed. The”, “thyroid), PC-3 (prostate) and A549 (lung).” for “thyroid).”
as §1, with “carcinoma), PC-3 (prostate),” for “carcinoma)”, “A549 (lung).” for “TT (medullary thyroid).”
(§3) Cells were plated at a density of 2000 to 10000 cells per well, depending on their growth rate, in 0.09 mL medium on day 0 in 96-well Microlite TCT microtiter plates (#7418, Thermo Labsystems, Franklin, Mass.). On day 1, 10 μL of serial dilutions of the individual compounds were added to the plates in replicates of 3. After incubation for 4 days at 37° C. in a humidified incubator, the cells were lysed in the Cell-Titer-Glo reagent, which also contains luciferase enzyme. […]

[2] = system: MCF-7 (breast); assay: in vitro cytotoxicity assay (Cell-Titer-Glo), MCF-7; settings: Homo sapiens
Experimental: as §1, §2
as §1, with “Briefly,” for “To evaluate cell killing of cancer cell lines, an in vitro cytotoxicity assay was performed. The”, “thyroid), PC-3 (prostate) and A549 (lung).” for “thyroid).”
as §1, with “carcinoma), PC-3 (prostate),” for “carcinoma)”, “A549 (lung).” for “TT (medullary thyroid).”
as §3

[3] = system: Panc-1 (pancreas); assay: in vitro cytotoxicity assay (Cell-Titer-Glo), Panc-1; settings: Homo sapiens
Experimental: as §1, §2
as §1, with “Briefly,” for “To evaluate cell killing of cancer cell lines, an in vitro cytotoxicity assay was performed. The”, “thyroid), PC-3 (prostate) and A549 (lung).” for “thyroid).”
as §1, with “carcinoma), PC-3 (prostate),” for “carcinoma)”, “A549 (lung).” for “TT (medullary thyroid).”
as §3

[4] = system: HT-29 (colon); assay: in vitro cytotoxicity assay (Cell-Titer-Glo), HT-29; settings: Homo sapiens
Experimental: as §1, §2
as §1, with “Briefly,” for “To evaluate cell killing of cancer cell lines, an in vitro cytotoxicity assay was performed. The”, “thyroid), PC-3 (prostate) and A549 (lung).” for “thyroid).”
as §1, with “carcinoma), PC-3 (prostate),” for “carcinoma)”, “A549 (lung).” for “TT (medullary thyroid).”
as §3

[5] = Example 20, read-out: Cell-based IC50 values HepG2
[6] = MCF7, 96 h, Example 20, 4 days, read-out: Cell-based IC50 values MCF-7
[7] = PANC-1, 96 h, Example 20, 4 days, read-out: Cell-based IC50 values Panc-1
[8] = HT-29, 96 h, Example 20, 4 days, read-out: Cell-based IC50 values HT-29
[9] = MCF7, 96 h, Table 9, 4 days, read-out: IC50 MCF-7
[10] = PANC-1, 96 h, Table 9, 4 days, read-out: IC50 Panc-1
[11] = HT-29, 96 h, Table 9, 4 days, read-out: IC50 HT-29

CC(=O)NS(=O)(=O)c1ccc(NC(=S)N2CCN(c3ncnc4[nH]c5cc(C(F)(F)F)c(Cl)cc5c34)CC2)cc1 [Compound 1-1, 4-(6-Chloro-7-trifluoromethyl-9H-pyrimido[4,5-b]indol-4-yl)-piperazine-1-carbothioic acid (4-acetylsulfamoyl-phenyl)-amide]
pIC50 ([1]; Example 18, read-out: calculated IC50 HepG2): 5.11 | pIC50 [1, 5]: 4.59 | pIC50 ([2]; MCF7, 96 h, Example 18, 4 days, read-out: calculated IC50 MCF-7): 4.65 | pIC50 [2, 6]: 4.84 | pIC50 ([2]; MCF7, Table 10, 96 hours, read-out: IC50 MCF-7 (inhibit cell growth to 50% of untreated)): 4.65 | pIC50 ([3]; PANC-1, 96 h, Example 18, 4 days, read-out: calculated IC50 Panc-1): 4.39 | pIC50 [3, 7]: 4.43 | pIC50 ([3]; PANC-1, Table 10, 96 hours, read-out: IC50 Panc1 (inhibit cell growth to 50% of untreated)): 4.39 | pIC50 ([4]; HT-29, 96 h, Example 18, 4 days, read-out: calculated IC50 HT-29): 4.83 | pIC50 [4, 8]: 5.30 | pIC50 ([4]; HT-29, Table 10, 96 hours, read-out: IC50 HT-29 (inhibit cell growth to 50% of untreated)): 4.83

COc1cc2[nH]c3ncnc(N4CCN(C(=S)Nc5ccc(S(=O)(=O)NC(C)=O)cc5)CC4)c3c2cc1OC [Compound 1-2, 4-(6,7-Dimethoxy-9H-pyrimido[4,5-b]indol-4-yl)-piperazine-1-carbothioic acid (4-acetylsulfamoyl-phenyl)-amide]
pIC50 [1, 5]: 3.53 | pIC50 [2, 6]: 3.90 | pIC50 [3, 7]: 3.70 | pIC50 [4, 8]: 4.03

CC(=O)NS(=O)(=O)c1ccc(NC(=S)N2CCN(c3ncnc4[nH]c5ccc(Cl)cc5c34)CC2)cc1 [Compound 1-3, 4-(6-chloro-9H-pyrimido[4,5-b]indol-4-yl)-piperazine-1-carbothioic acid (4-acetylsulfamoyl-phenyl)-amide]
pIC50 [1, 5]: 4.30 | pIC50 [2, 6]: 3.68 | pIC50 [3, 7]: 4.45 | pIC50 [4, 8]: 4.53

CC(=O)NS(=O)(=O)c1ccc(NC(=S)N2CCN(c3ncnc4[nH]c5cc(F)ccc5c34)CC2)cc1 [Compound 1-4]
pIC50 [1, 5]: 4.06 | pIC50 [2, 6]: 3.60 | pIC50 [3, 7]: 3.87 | pIC50 [4, 8]: 3.99

COc1cc2c(cc1O)[nH]c1ncnc(N3CCN(C(=S)Nc4ccc(S(=O)(=O)NC(C)=O)cc4)CC3)c12 [Compound 1-8]
pIC50 [1, 5]: 4.09 | pIC50 [2, 6]: 4.08 | pIC50 [4, 8]: 4.56

COc1cc2[nH]c3ncnc(N4CCN(C(=S)Nc5ccc(S(=O)(=O)N6CCOCC6)cc5)CC4)c3c2cc1OC [Compound 1-26]
pIC50 [1, 5]: 5.36 | pIC50 [2, 6]: 4.83 | pIC50 [3, 7]: 3.86 | pIC50 [4, 8]: 3.75

COc1cc2[nH]c3ncnc(N4CCN(C(=S)Nc5ccc(NC(=O)C6CC6)cc5)CC4)c3c2cc1OC [Compound 1-34]
pIC50 [1, 5]: 4.09 | pIC50 [2, 6]: 4.11 | pIC50 [3, 7]: 3.90 | pIC50 [4, 8]: 3.86

COc1cc2[nH]c3ncnc(N4CCN(C(=S)Nc5ccc(NC(C)=O)cc5)CC4)c3c2cc1OC [Compound 1-42]
pIC50 [1, 5]: 4.01 | pIC50 [2, 6]: 5.34 | pIC50 [3, 7]: 3.67 | pIC50 [4, 8]: 3.85

COc1cc2[nH]c3ncnc(N4CCN(C(=S)Nc5ccc(S(N)(=O)=O)cc5)CC4)c3c2cc1OC [Compound 1-107]
pIC50 [1, 5]: 3.76 | pIC50 [2, 6]: < 3.52 | pIC50 [3, 7]: 3.52 | pIC50 [4, 8]: < 3.52

COc1cc2[nH]c3ncnc(N4CCN(C(=S)Nc5ccc(S(C)(=O)=O)cc5)CC4)c3c2cc1OC [Compound 1-115]
pIC50 [1, 5]: 4.24 | pIC50 [2, 6]: 4.06 | pIC50 [3, 7]: 4.30 | pIC50 [4, 8]: 4.01

COc1cc2[nH]c3ncnc(N4CCN(C(=S)Nc5ccc(S(=O)(=O)Nc6ccc(F)cc6)cc5)CC4)c3c2cc1OC [Compound 2-3, 4-(6,7-dimethoxy-9H-pyrimido[4,5-b]indol-4-yl)-N-(4-(N-(4-fluorophenyl)sulfamoyl)phenyl)piperazine-1-carbothioamide]
pIC50 ([1]; Table 9, read-out: IC50 HepG2): 5.04 | pIC50 [2, 9]: 5.07 | pIC50 [3, 10]: 4.65 | pIC50 [4, 11]: 5.19

COc1ccc2c(c1)[nH]c1ncnc(N3CCN(C(=S)Nc4ccc(S(=O)(=O)Nc5ccc(F)cc5)cc4)CC3)c12 [Compound 2-5, 4-(7-methoxy-9H-pyrimido[4,5-b]indol-4-yl)-N-(4-(N-(4-fluorophenyl)sulfamoyl)phenyl)piperazine-1-carbothioamide]
pIC50 ([1]; Table 9, read-out: IC50 HepG2): 5.10 | pIC50 [2, 9]: 5.09 | pIC50 [3, 10]: 4.97 | pIC50 [4, 11]: 5.16

Cc1ccc(NS(=O)(=O)c2ccc(NC(=S)N3CCN(c4ncnc5[nH]c6cc(Cl)c(N7CCOCC7)cc6c45)CC3)cc2)cc1 [Compound 2-9, 4-(7-chloro-6-morpholino-9H-pyrimido[4,5-b]indol-4-yl)-N-(4-(N-tolylsulfamoyl)phenyl)piperazine-1-carbothioamide]
pIC50 ([1]; Table 9, read-out: IC50 HepG2): 4.59 | pIC50 [2, 9]: 5.09 | pIC50 [3, 10]: 4.07 | pIC50 [4, 11]: 5.10
